Counter-ions that a name gives are not always drawn. Like-named read-outs stand apart in the source and are kept apart here.
Key:
[1] = target: T1, rat cortex histamine H1 receptor (Rattus norvegicus, UniProt P31390); test: Affinity towards the histamine H1 receptor ([3H]mepyramine competitive binding); conditions: cologarithm of Ki, mean ± deviation (n=2); [3H]mepyramine 4.5×10^−9 mole/l, rat cortex membranes
T1 construct: the samples containing 0.5 mg of cortex membrane protein; from tissue; host or cells: cerebral cortex membranes of male Sprague-Dawley rats
T1 sequence (P31390 whole entry): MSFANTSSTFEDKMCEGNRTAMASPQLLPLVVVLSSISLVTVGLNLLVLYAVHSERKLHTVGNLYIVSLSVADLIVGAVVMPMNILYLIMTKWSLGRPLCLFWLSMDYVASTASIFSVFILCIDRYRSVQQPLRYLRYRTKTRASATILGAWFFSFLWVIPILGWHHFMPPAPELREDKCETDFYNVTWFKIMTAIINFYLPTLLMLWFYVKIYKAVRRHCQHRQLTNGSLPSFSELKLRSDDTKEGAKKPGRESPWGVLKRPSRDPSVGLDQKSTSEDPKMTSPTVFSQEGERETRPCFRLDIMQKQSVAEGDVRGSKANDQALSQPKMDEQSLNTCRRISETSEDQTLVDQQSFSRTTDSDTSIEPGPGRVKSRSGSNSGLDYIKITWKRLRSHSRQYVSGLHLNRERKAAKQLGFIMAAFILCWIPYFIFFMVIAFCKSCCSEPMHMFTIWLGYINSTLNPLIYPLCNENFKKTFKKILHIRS
Procedure: Cerebral cortexes from male Sprague-Dawley rats are homogenized in 2 ml per cortex of a 20 mM Tris-HCl buffer (pH 7.4) containing 250 mM sucrose. The homogenates are centrifuged at 30,000 g for 30 minutes at 4° C. and the centrifugation pellets are resuspended in the same fresh buffer and preserved in liquid nitrogen. […] The bound [^3H]mepyramine is separated from the free radioligand by rapid filtration of the sample through a Whatman GF/C filter, previously impregnated for at least 2 hours with a 0.1% solution of polyethyleneimine, in order to reduce the possibility of non-specific binding of the radioligand with other proteins. […] The radioactivity thereof is then measured using a β particle Tri-carb 1090 scintillation counter (Camberra-Packard, Belgium). Non-specific binding has been estimated in the presence of a 10 μM aqueous solution of cetirizine and represents 30% of the total binding. […] DE LEAN et al., Mol. Pharmacol., 21 (1982), 5-16) and their inhibition constants (Ki) are calculated by means of the CHENG and PRUSOFF equation (Y. C. CHENG and W. H. PRUSOFF, Biochem. Pharmacol., 22 (1973), 3099-3108). Table III below gives the values of pKi (cologarithm of Ki) calculated from Ki (mean value±deviation with respect to the mean (n=2)), for the compounds tested.

mice = test: Toxicity: lethal dose in mice after intraperitoneal injection; assay type: in vivo; conditions: dose causing death in 2 out of 3 mice
[2] = tested on: isolated guinea pig trachea; test: Peripheral antihistaminic properties: inhibition of histamine-induced contraction of isolated guinea pig trachea; conditions: mean ± standard deviation, histamine-contracted guinea pig trachea; for pA2: competitive inhibition; for pD2′: non-competitive inhibition
Procedure: Tracheas of Dunkin-Hartley guinea pigs of both sexes (weight: 250-500 g) are excised and cut into four fragments of three segments of cartilage each. These fragments are immersed in a Krebs-Heinseleit solution at 37° C. containing 10^−7 mole/l of atropine and 10^−5 mole/l of indomethacin and are stretched with a weight of 1 g. The solution is aerated with a current of oxygen containing 5% carbon dioxide. Each change in tension, is recorded with an isometric force indicator K 30 (from Hugo Sachs Elektronik) coupled to an amplifier and a Sanborn 7700 recorder (from Hewlett Packard). The preparation (i.e. trachea fragment) so obtained is allowed to stabilize for one hour during which the base line for the tension is readjusted if necessary.
After washing and stabilization, a cumulative curve showing the effects of histamine, as a function of its concentration (10^−6, 10^−5 and 10^−4 mole/l) is plotted as a control.
For the same preparation, four further cumulative curves showing the effects of histamine as a function of its concentration are then recorded at four increasing concentrations of each compound to be tested.
The compounds to be tested are incorporated in the medium five minutes before the histamine. Between each measurement, the preparations are washed at least four times with an interval of five minutes between each washing. Each compound is tested on at least 6 trachea fragments. When the last curve is plotted, additional concentrations of 3.2×10^−4 and 10^−3 mole/l of histamine are added in order to determine whether the antagonism is competitive or not.

[3] = tested on: cutaneous reaction induced by histamine; test: Inhibition of the cutaneous reaction induced by histamine in dogs; assay type: in vivo, dog; conditions: for Area of wheals: nine Beagle dogs, mean ± SD; for Wheal area as percent of reference: with respect to reference area (100%); for inhibition at 0.15 mg/kg: Canis lupus familiaris
Procedure: The dog is considered, among the animal species, to be the species having a sensitivity to histamine relatively close to that of man.
In this test, nine Beagle dogs are used, having an average weight of 12.6 kg and of about two years of age and of which the abdomens have been locally shaved. 50 μl of a 0.9% aqueous solution of sodium chloride, containing 10 μg/ml of histamine, is injected intradermally into the shaved area. Simultaneously, a solution of Evans blue dye (60 mg/ml in a 0.9% aqueous solution of sodium chloride), is administered by intravenous injection to each dog at a dose of 0.1 ml/kg. An allergic reaction develops at the intradermal injection site and there appears a wheal, the area of which is measured exactly 30 minutes after the two injections. This area is taken as the reference. area (100%)
The compound to be tested is then administered orally, at a dose of 0.15 mg/kg (0.32×10^−6 mole/kg). 0.5, 1.5, 3, 6, 9, 12, 24 and 32 hours after administration of the compound to be tested, new wheals are induced at different abdominal locations by injecting histamine. Each time, the area of the induced wheal is measured 30 minutes after the injection of histamine.
The antihistaminic activity of a compound on the cutaneous allergic reaction is determined by measuring the reduction in the area of the induced wheals, following administration of the compound, with respect to the area of the reference wheal, and then expressed in percent.

[4] = 0.5 hours after 0.15 mg/kg oral
[5] = 1.5 hours after 0.15 mg/kg oral

Row | SMILES | Ki [1] [nM] | Lethal dose (mice) [mol/kg] | pA2 [2] | also measured
1 | Cc1cccc(CN2CCN(C(c3ccccc3)c3ccc(Cl)cc3)CC2)c1 (single isomer, unassigned) [C, levorotatory dihydrochloride of 1-[(4-chlorophenyl)phenylmethyl]-4-[(3-methylphenyl)methyl]piperazine] | 631 | >0.001 | – | –
2 | Cc1cccc(CN2CCN(C(c3ccccc3)c3ccc(Cl)cc3)CC2)c1 (single isomer, unassigned) [D, dextrorotatory dihydrochloride of 1-[(4-chlorophenyl)phenylmethyl]-4-[(3-methylphenyl)methyl]piperazine] | 63.1 | >0.001 | – | –
3 | CC(C)(C)c1ccc(CN2CCN(C(c3ccccc3)c3ccc(Cl)cc3)CC2)cc1 (single isomer, unassigned) [E, levorotatory dihydrochloride of 1-[(4-tert-butylphenyl)methyl]-4-[(4-chlorophenyl)phenylmethyl]piperazine] | 1260 | 0.001 | – | –
4 | CC(C)(C)c1ccc(CN2CCN(C(c3ccccc3)c3ccc(Cl)cc3)CC2)cc1 (single isomer, unassigned) [F, dextrorotatory dihydrochloride of 1-[(4-tert-butylphenyl)methyl]-4-[(4-chlorophenyl)phenylmethyl]piperazine] | 631 | >0.001 | – | –
5 | OCCOCCN1CCN(C(c2ccccc2)c2ccc(Cl)cc2)CC1 (single isomer, unassigned) [G, levorotatory dihydrochloride of 2-[2-[4-[(4-chlorophenyl)phenylmethyl]-1-piperazinyl]ethoxy]ethanol] | 25.1 | 0.0006 | 6.5 ± 0.3 | –
6 | OCCOCCN1CCN(C(c2ccccc2)c2ccc(Cl)cc2)CC1 (single isomer, unassigned) [H, dextrorotatory dihydrochloride of 2-[2-[4-[(4-chlorophenyl)phenylmethyl]-1-piperazinyl]ethoxy]ethanol] | 2 | 0.0006 | – | pD2′ [2]: 6.7 ± 0.1
7 | OCCOCCOCCN1CCN(C(c2ccccc2)c2ccc(Cl)cc2)CC1 (single isomer, unassigned) [I, levorotatory dihydrochloride of 2-[2-[2-[4-[(4-chlorophenyl)phenylmethyl]-1-piperazinyl]ethoxy]ethoxy]ethanol] | 79.4 | 0.0001 | 6.5 ± 0.4 | –
8 | OCCOCCOCCN1CCN(C(c2ccccc2)c2ccc(Cl)cc2)CC1 (single isomer, unassigned) [J, dextrorotatory dihydrochloride of 2-[2-[2-[4-[(4-chlorophenyl)phenylmethyl]-1-piperazinyl]ethoxy]ethoxy]ethanol] | 2.51 | 0.0001 | – | pD2′ [2]: 6.0 ± 0.3
9 | COC(=O)COCCN1CCN(C(c2ccccc2)c2ccc(Cl)cc2)CC1 (single isomer, unassigned) [M, levorotatory dimaleate of methyl 2-[2-[4-[(4-chlorophenyl)phenylmethyl]-1-piperazinyl]ethoxy]acetate] | 3.16 | – | – | –
10 | COC(=O)COCCN1CCN(C(c2ccccc2)c2ccc(Cl)cc2)CC1 (single isomer, unassigned) [N, dextrorotatory dimaleate of methyl 2-[2-[4-[(4-chlorophenyl)phenylmethyl]-1-piperazinyl]ethoxy]acetate] | 79.4 | – | – | –
11 | O=C(O)COCCN1CCN(C(c2ccccc2)c2ccc(Cl)cc2)CC1 (single isomer, unassigned) [O, levorotatory dihydrochloride of 2-[2-[4-[(4-chlorophenyl)phenylmethyl]-1-piperazinyl]ethoxy]acetic acid] | 39.8 | – | 6.6 ± 0.3 | –
12 | O=C(O)COCCN1CCN(C(c2ccccc2)c2ccc(Cl)cc2)CC1 (single isomer, unassigned) [P, dextrorotatory dihydrochloride of 2-[2-[4-[(4-chlorophenyl)phenylmethyl]-1-piperazinyl]ethoxy]acetic acid] | 6.31 | – | – | pD2′ [2]: 6.3 ± 0.2; Area of wheals [3, 4]: 65 ± 10 mm^2; Wheal area as percent of reference [3, 4]: 85%; reduction in the area of the wheals ([3]; 30 minutes after administration, 0.15 mg/kg oral, dogs): 15%; Area of wheals [3, 5]: 44 ± 12 mm^2; Wheal area as percent of reference [3, 5]: 58%; Area of wheals ([3]; 3 hours after 0.15 mg/kg oral): 33 ± 10 mm^2; Wheal area as percent of reference ([3]; 3 hours after 0.15 mg/kg oral): 43%; Area of wheals ([3]; 6 hours after 0.15 mg/kg oral): 41 ± 13 mm^2; Wheal area as percent of reference ([3]; 6 hours after 0.15 mg/kg oral): 54%; Area of wheals ([3]; 9 hours after 0.15 mg/kg oral): 41 ± 10 mm^2; Wheal area as percent of reference ([3]; 9 hours after 0.15 mg/kg oral): 54%; Area of wheals ([3]; 12 hours after 0.15 mg/kg oral): 41 ± 10 mm^2; Wheal area as percent of reference ([3]; 12 hours after 0.15 mg/kg oral): 54%; Area of wheals ([3]; 24 hours after 0.15 mg/kg oral): 45 ± 5 mm^2; Wheal area as percent of reference ([3]; 24 hours after 0.15 mg/kg oral): 59%; Area of wheals ([3]; 32 hours after 0.15 mg/kg oral): 51 ± 5 mm^2; Wheal area as percent of reference ([3]; 32 hours after 0.15 mg/kg oral): 67%; inhibition at 0.15 mg/kg ([3]; 3 h, after three hours, 0.15 mg/kg oral, dogs, read-out: Maximum inhibition (of wheal area)): 57%; inhibition at 0.15 mg/kg ([3]; after 32 hours, 0.15 mg/kg oral, dogs, read-out: inhibition (of wheal area), statistically significant): 33%
13 | Clc1ccc(C(c2ccccc2)N2CCNCC2)cc1 (single isomer, unassigned; (+)) [B, (+)-1-[(4-chlorophenyl)phenylmethyl]piperazine] | – | – | 5.0 ± 0.1 | –
14 | NC(=O)COCCN1CCN(C(c2ccccc2)c2ccc(Cl)cc2)CC1 (single isomer, unassigned; (+)) [Compound L, (+)-2-[2-[4-[(4-chlorophenyl)phenylmethyl]-1-piperazinyl]ethoxy]acetamide] | 158 | 0.001 | 6.4 ± 0.2 | –
15 | Clc1ccc(C(c2ccccc2)N2CCNCC2)cc1 (single isomer, unassigned; (-)) [A, (−)-1-[(4-chlorophenyl)phenylmethyl]piperazine] | – | – | 5.7 ± 0.4 | –
16 | NC(=O)COCCN1CCN(C(c2ccccc2)c2ccc(Cl)cc2)CC1 (single isomer, unassigned; (-)) [K, (−)-2-[2-[4-[(4-chlorophenyl)phenylmethyl]-1-piperazinyl]ethoxy]acetamide] | 2.51 | 0.0003 | – | pD2′ [2]: 6.3 ± 0.2
